Source: patent US11311543B2, “Compositions and methods for inhibiting PTPN22” (YALE UNIVERSITY, priority 2016, dated 2022)

Assays:
[1] = system: ERK; test: Phosphorylation kinetics of ERK in RAMOS cells after BCR triggering (immunoblot); type: cell-based, human; details: LTV-1 5 μg/mL
Procedure: (§1) FIG. 40A depicts the phosphorylation of SHIP1, Lyn and ERK1/2 in total cell lysates of Ramos B cells treated or not with the PTPN22 inhibitor LTV-1 (5 μg/mL) for the indicated times. The cells were subjected to immunoblot analysis of P-LYN P-SHIP1, P-ERK1/2, and β-ACTIN. FIG. 40B depicts flow cytometry analysis of calcium flux of Ramos B cells treated or not with the PTPN22 inhibitor LTV-1 (5 μg/mL) for the indicated times followed by stimulation with anti-IgM F(ab′)2 at the indicated concentrations. FIG. 40C depicts flow cytometry analysis of calcium flux of splenocyte cells treated or not with LTV-1 (0.75 mg) twice daily for 7 days and stimulated with anti-IgM F(ab′)2 (25 μg/mL). FIG. 40D depicts flow cytometry analysis of calcium flux of splenocyte expressing PTPN22 shRNA and stimulated with anti-IgM F(ab′)2 (25 μg/mL).
(§2) However, downstream ERK phosphorylation was not affected by PTPN22 inhibition (FIG. 40A). Since PTPN22 inhibition enhanced TCR signaling in Jurkat cell line, it was investigated if PTPN22 blockade may also increase BCR signaling and calcium flux induced by BCR triggering was measured in RAMOS cells in the presence or not of LTV-1. Calcium flux was increased by PTPN22 inhibition, especially at lower concentration of BCR triggering agent (FIG. 40B). […]

[2] = target: T1, PTPN22 (Homo sapiens, UniProt Q9Y2R2); details: Vang et al., 2012; cited from earlier work
T1 construct: host or cells: T cells (not further specified)
T1 sequence (Q9Y2R2 1-807): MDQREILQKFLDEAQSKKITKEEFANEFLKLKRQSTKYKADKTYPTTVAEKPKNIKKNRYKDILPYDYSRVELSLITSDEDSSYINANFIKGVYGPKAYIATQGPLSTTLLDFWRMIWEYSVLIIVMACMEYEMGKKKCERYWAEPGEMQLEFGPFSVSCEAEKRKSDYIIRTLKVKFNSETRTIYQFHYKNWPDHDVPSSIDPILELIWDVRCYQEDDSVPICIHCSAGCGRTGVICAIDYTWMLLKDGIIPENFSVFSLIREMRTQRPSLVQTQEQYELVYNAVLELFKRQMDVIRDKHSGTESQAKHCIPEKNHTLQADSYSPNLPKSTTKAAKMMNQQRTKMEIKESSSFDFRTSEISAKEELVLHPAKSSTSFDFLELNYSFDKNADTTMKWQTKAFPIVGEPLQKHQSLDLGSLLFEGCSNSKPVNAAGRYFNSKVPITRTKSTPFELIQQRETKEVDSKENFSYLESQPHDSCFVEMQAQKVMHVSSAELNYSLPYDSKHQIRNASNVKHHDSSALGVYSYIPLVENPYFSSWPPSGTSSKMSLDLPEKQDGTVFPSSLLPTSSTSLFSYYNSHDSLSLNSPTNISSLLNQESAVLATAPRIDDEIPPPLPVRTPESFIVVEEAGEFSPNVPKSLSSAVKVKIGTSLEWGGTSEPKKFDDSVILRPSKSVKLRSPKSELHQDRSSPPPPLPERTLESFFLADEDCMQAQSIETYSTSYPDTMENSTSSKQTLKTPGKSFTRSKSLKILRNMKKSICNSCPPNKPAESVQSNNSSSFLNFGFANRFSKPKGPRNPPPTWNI

[3] = system: SHIP1; test: Phosphorylation kinetics of SHIP1 in RAMOS cells after BCR triggering (immunoblot); type: cell-based, human; details: LTV-1 5 μg/mL
Procedure: as §1, §2

[4] = system: PTPN22; test: PTPN22 expression by western blot in shRNA-transduced RAMOS B cell line; type: cell-based; details: human RAMOS B cell line, GFP+ shRNA+ vs GFP-
Procedure: FIG. 10A depicts flow cytometry analysis of Ramos B cells transduction efficiency. Ramos B cells were transduced with three different GFP-tagged shRNA PTPN22 expressing lentiviruses and probed for GFP expression. […] Percentage of knock-down is indicated. FIG. 10B depicts the frequencies of polyreactive new emigrant B cells from sorted GFP− fractions were determined. […] For each B-cell fraction, the frequency of reactive (filled area) and non-reactive (open area) clones is summarized in pie charts with the total number of clones tested indicated in the center. FIG. 10C depicts the frequencies of HEp-2 reactive new emigrant B cells from sorted GFP− fractions were determined. […] For each B-cell fraction, the frequency of reactive (filled area) and non-reactive (open area) clones is summarized in pie charts with the total number of clones tested indicated in the center. FIG. 10D depicts the frequencies of antinuclear new emigrant B cells are compared between GFP− and GFP+ shRNA+ new emigrant B cells. […]
Total cell lysates were separated by SDS page, transferred to PVDF membranes, probed with mouse anti-PTPN22 (Invitrogen) and detected by chemiluminescence (Amersham ECL Prime Western Blotting detection Reagent) using a GBox documentation system (Syngene). For quantification, blots were stripped with stripping buffer (Pierce) and reprobed with a mouse anti-β-Actin antibody (Sigma-Aldrich).

Row | Compound | downstream ERK phosphorylation [1] | PTPN22 enzymatic activity in T cells in vitro [2] | phosphorylation of SHIP1 at position Y2010 [3] | inhibition of PTPN22 expression detected by western blot [4]
1 | Cc1ccccc1N1C(=O)/C(=C/c2ccc(OCc3cccc(C(=O)O)c3)cc2)C(=O)NC1=S [LTV-1] | not affected | can be inhibited | decreases | –
2 | shRNA #1: shRNA targeting human PTPN22, 5′-CTAGTGCTCTTGGTGTATATT-3′, delivered by GFP-tagged lentivirus | – | – | – | about 80%
